Test results published in patent publication US10463745B2, “Materials for tissue regeneration” (Northwestern University, priority 2015, dated 2019).
Groups on a side chain read outwards from the residue. No end group written: not given here. BMPH = maleimide-and-hydrazide crosslinker; PPCN hydrogel = not defined here

Assays:
[1] = tested on: human dermal fibroblasts and human epithelial keratinocytes; assay: Self-assembled monolayer (SAM) cell adhesion assay; type: cell-based; conditions: HDFs and HEKas
Method: Cysteine-terminated peptides were synthesized manually on Fmoc-Rink amide MHBA resin using a standard solid phase peptide synthesis protocol. They were purified using reverse-phase HPLC with a C18 column, and the final products were characterized by matrix-assisted laser desorption/ionization time of flight mass spectrometry (MALDI-TOF MS). Self-assembled monolayer cell adhesion assay was performed (ref 56; incorporated by reference in its entirety). Maleimide-terminated alkanethiol was self-assembled on the gold surfaces to form the well-organized monolayer. Known amount of characterized Cysteine-terminated peptides were dissolve in 0.1% trifluoroacetic acid solution and incubate with the surface to allow peptide absorption on the surface via thiol-maleimide reaction. The resulting surfaces were characterized by MALDI-TOF MS for peptide adsorption before being used for HDFs and HEKas adhesion studies. The adherent cells were counted 2 hours after the initial seeding. […]
The synthesized peptides were immobilized onto SAM chips by incubating the chips with 100 μM peptide solution in PBS at room temperature for 1 hr. […] Peptide chips were then mounted with Vectashield+DAPI and imaged on a Nikon Eclipse TE2000-U inverted fluorescence microscope. The number of cells per field of view was counted using ImageJ software. […]

HDFs [2] = assay: Cell cycle analysis by flow cytometry with propidium iodide; type: cell-based, human; conditions: HDFs in gel
Method: A flow cytometric analysis, with propidium iodide (PI), was performed in order to measure the cell cycle activity. At each time point, cell encapsulated scaffolds were liquefied, and the cells were extracted via centrifuging. The cells were then washed with ice-cold PBS, and fixed with 70% ice-cold ethanol for 1 h before repeated washing with PBS and re-suspension in PBS with 0.5 mg/mL Rnase A (Thermo Fisher Scientific). After 1 h incubation, the cellular DNA was then stained with PI (50 μg/mL) for 20 min while protected from the light at 4° C. The relative DNA concentration of the stained cells was measured using a BD LSRII flow cytometer (Becton Dickinson, San Jose, Calif.).

Human dermal fibroblasts = assay: In vitro 3D cell culture, live/dead stain, confocal imaging of cell spreading; type: cell-based; conditions: HDFs
Method: Cell culture medium (KGM-Gold for HEKa, DMEM+10% FBS for HDF) was then added to each well, and cells were cultured at 37° C. and 5% CO2. After 5 or 10 days, the gels were washed twice with warm 1×PBS, and stained with live/dead stain (2 uM calcein AM and 2 uM ethidium homodimer-1) at 37° C. for 15 min. The samples were then washed twice with warm 1×PBS and imaged on a Nikon C2 Confocal microscope.

[3] = tested on: db/db mice full-thickness wound; assay: Diabetic splinted excisional wound healing model, wound closure; type: in vivo, mouse
Method: To prevent skin contraction, paired pre-sterilized doughnut-shaped splints (10-mm inner diameter; 12-mm outer diameter) made from 0.5-mm-thick acrylate tape (3M, St. Paul, Minn.) were attached to the left and right dorsal sides of the mouse with Vetbond (3M) and interrupted 6-0 nylon sutures (Ethicon, Cincinnati, Ohio) after depilation. A 6-mm circular, full-thickness wound was made in the center of each splinted area. 40 μl of gel solution was applied to each wound bed. A transparent sterile occlusive dressing TegaDerm™ (3M) was then placed over the wound and the splint. Digital images of the wound area were taken every other day, and quantified in ImageJ by normalizing the wound area to the known splint area at each time point. Hydrogel dressings were reapplied on day 6, after gently rinsing the wound with cold 1× PBS.

db/db mice wound tissue = assay: Histology and immunofluorescence of regenerated wound tissue; type: in vivo, mouse
Text: Upon full closure of the wounds (for the first batch study) or 10 days after the initial wound surgery (for the second batch study), animals were euthanized and the regenerated wound tissue was excised with a 10-mm biopsy punch (Acuderm, Fort Lauderdale, Fla.), fixed using 4% paraformaldehyde and embedded by paraffin. The tissues were then sectioned and processed for hematoxylin and eosin (H&E) staining to measure granulation tissue thickness, and the epithelial gap histomorphometrically. The granulation tissue thickness and epithelial gap was measured based on 5 different H&E images for each group by blinded observer using ImageJ. The tissue sections were also stained for Keratin 10, Integrin α3 or F4/80 (Santa Cruz, Dallas, Tex.) The secondary antibodies used were either conjugated to AlexaFluor488 or AlexaFluor555 (Invitrogen, Carlsbad, Calif.).

[4] = tested on: integrin α3 and α6 on HDFs; assay: Proliferation inhibition with anti-integrin α3 and α6 antibodies; type: cell-based, human; conditions: 5 days
Method: The mouse monoclonal antibody against human integrin α6 and α3 were purchased from Santa Cruz (Dallas, T A), and dialyzed with 10,000 MWCO Dialysis Cassettes dialysis cassette (Thermo Scientific) overnight to remove the sodium azide. […] Before cell encapsulation, HDFs were pre-incubated in suspension with corresponding anti-integrin antibodies (final concentration 10 μg/mL) for 15 min at 37° C. Then the pre-treated HDFs (1×10^4 cells per 50 μL scaffold per well) were incubated on the ultra-low attachment plate (Coring, Coring, NY) for 5 days at 37° C. in 5% CO2. Anti-integrin antibodies treatments were also added in the culture media for the corresponding groups (10 μg/mL), and the media was changed every other day. After 5 days of incubation, total DNA content within each scaffold was quantified using PicoGreen DNA quantification assay as mentioned above.

HDFs [5] = assay: PicoGreen total DNA quantification (proliferation in 3D culture); type: cell-based, human; conditions: HDFs in gel, over the course of 10 days
Method: HDF encapsulated hydrogel scaffold samples were prepared and cultured using the same method as the in vitro 3D cell culture with 10 K cells per 50 μl hydrogel per sample. At each time point, after removing the medium, the samples were cooled on ice, and the cells were lysed by PBS-3% Triton-X. The Quant-iT PicoGreen dsDNA assay kit (Life Technologies) was employed according to the manufacturer's protocol, and the results were read in triplicates. Samples of […] were accessed using microplate reader (Tecan, Männedorf, Switzerland); fluorescence was quantified at 520 nm with excitation at 480 nm.

Substance | cell adhesion on SAMs presenting the peptide [1] | S phase percentage (HDFs [2]; day 5) [%] | S phase percentage (HDFs [2]; day 10) [%] | cell spreading in 3D culture (Human dermal fibroblasts; day 5) | cell spreading in 3D culture (Human dermal fibroblasts; day 10) | time to complete wound closure [3] [days] | percent wound closure ([3]; day 10) [%] | complete closure faster than P-RGD ([3]; versus P-RGD) [days] | complete closure faster than PPCN and P-IP ([3]; versus PPCN and P-IP) | granulation tissue thickness (db/db mice wound tissue; by the time of closure, compared with PPCN, P-RGD and P-IP groups) | wound histology at day 10 within the same animal (db/db mice wound tissue; db/db mice, day 10, P-A5G81 side vs P-IP side) | epidermal gap relative to that of the P-IP control wounds (db/db mice wound tissue; db/db mice, day 10, after two applications) [%] | epithelial gap (db/db mice wound tissue; db/db mice, day 30) [μm] | integrin α3 positive cells in wound tissue (db/db mice wound tissue; db/db mice, day 30) | wound opening relative to the initial wound size (db/db mice wound tissue; db/db mice, day 30) | macrophage marker F4/80 staining (db/db mice wound tissue; db/db mice, day 30, foreign body response) | Keratin 10 staining, epithelium structure (db/db mice wound tissue; db/db mice, day 30, wound centre) | cell proliferation (total DNA) under complete blocking ([4]; both anti-α3 and anti-α6, 10 μg/mL) | cell proliferation (total DNA) under partial blocking ([4]; only anti-α3 or anti-α6, 10 μg/mL) | cell proliferation rate (total DNA content) (HDFs [5])
A5G81: 12 amino acid laminin α5 globular domain derived peptide AGQWHRVSVRWG (listed as Mus musculus) | excellent cell adhesion properties |  |  |  |  |  |  |  |  |  |  |  |  |  |  |  |  |  |  | 
IP: inactive form of A5G81 (WHRVSVC), negative control (WHRVSVC-NH2) [reference compound] | very low cell adhesive properties |  |  |  |  |  |  |  |  |  |  |  |  |  |  |  |  |  |  | 
P-A5G81: PPCN hydrogel conjugated via BMPH linker to cysteine-terminated A5G81 peptide (AGQWHRVSVRWGC([BMPH-PPCN hydrogel])-NH2; reading uncertain; also: conjugated to PPCN hydrogel via BMPH linker at C-terminal Cys) |  | 21 | 26.6 | began to spread | fully elongated with typical fibroblast morphology | 21 | 45.3 | 3 | one week faster | significantly thicker | thick granulation tissue was already prominent | 25 | 340 | significant amount of α3 positive cells | around 5% | minimum amount of macrophages | multi-layer epithelium structure | close to the unfunctionalized PPCN scaffold | partial decrease of the cell proliferation | higher cell proliferation rate
